Measured values reported in US20120172340A1, “Compositions and Methods for Selectively Activating Human Sirtuins” (BIOMOL International L.P., priority 2004, published 2012).
“Also recorded” adds a separate entry of the source.

Columns and labels:
human SIRT5 = biological target: T1, human SIRT5 (Homo sapiens, UniProt Q9NXA8); experiment: SIRT5 rate measurement, fluorogenic p53-382 peptide deacetylation; format: biochemical; parameters: His6 (histidine tag, 2.5 kDa) (N); made in house; host or cells: E. coli; settings: for relative activation of SIRT5 versus SIRT1 (in words): comparison of Table 2 SIRT5 and SIRT1 data
T1 sequence (Q9NXA8 37-310): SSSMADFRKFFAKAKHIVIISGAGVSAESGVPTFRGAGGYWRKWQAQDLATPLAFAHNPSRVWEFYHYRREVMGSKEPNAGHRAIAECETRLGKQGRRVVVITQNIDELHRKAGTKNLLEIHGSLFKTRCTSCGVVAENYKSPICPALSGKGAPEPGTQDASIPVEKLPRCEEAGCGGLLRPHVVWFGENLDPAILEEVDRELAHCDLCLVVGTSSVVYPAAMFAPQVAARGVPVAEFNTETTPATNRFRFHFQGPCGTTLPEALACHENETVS

human SIRT1 = biological target: T2, human SIRT1 (Homo sapiens, UniProt Q96EB6); experiment: SIRT1 rate measurement, fluorogenic p53-382 peptide deacetylation; format: biochemical; settings: 100 μM test compounds; 25 μM NAD+, 25 μM p53-382 peptide
T2 construct: made in house; host or cells: E. coli
T2 sequence (Q96EB6 1-747): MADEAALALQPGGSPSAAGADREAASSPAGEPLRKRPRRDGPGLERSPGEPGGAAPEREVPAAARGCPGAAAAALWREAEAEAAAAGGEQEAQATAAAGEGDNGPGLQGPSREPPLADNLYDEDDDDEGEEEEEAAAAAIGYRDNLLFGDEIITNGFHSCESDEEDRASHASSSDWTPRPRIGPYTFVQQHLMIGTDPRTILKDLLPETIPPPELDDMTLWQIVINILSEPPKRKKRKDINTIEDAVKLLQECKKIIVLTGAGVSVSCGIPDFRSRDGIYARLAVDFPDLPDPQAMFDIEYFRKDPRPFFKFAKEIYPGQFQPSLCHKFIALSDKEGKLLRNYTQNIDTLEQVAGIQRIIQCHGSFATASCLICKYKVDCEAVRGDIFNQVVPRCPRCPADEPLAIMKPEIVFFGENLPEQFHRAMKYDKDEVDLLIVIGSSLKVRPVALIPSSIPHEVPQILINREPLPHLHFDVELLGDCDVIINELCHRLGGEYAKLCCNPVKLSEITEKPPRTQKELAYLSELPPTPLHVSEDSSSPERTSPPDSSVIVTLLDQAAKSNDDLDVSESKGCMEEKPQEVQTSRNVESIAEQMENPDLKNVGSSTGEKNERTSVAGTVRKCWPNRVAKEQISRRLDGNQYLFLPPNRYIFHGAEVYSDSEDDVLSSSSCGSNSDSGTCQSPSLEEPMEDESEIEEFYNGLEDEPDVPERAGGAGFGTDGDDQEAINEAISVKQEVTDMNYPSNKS

[1] = 200 μM test compounds, 500 μM NAD+, 100 μM p53-382 peptide

SMILES | identified as human SIRT5 inhibitor (human SIRT5) | SIRT5 Ratio of Control Rates Mean ± SE Compounds at 200 μM (human SIRT5; [1]) | SIRT1 Ratio to Control Rates Mean ± SE Compounds at 100 μM (human SIRT1) | maximum stimulation observed for SIRT5, increase in activity (human SIRT5; [1]) | maximum stimulation observed for SIRT1, increase in activity (human SIRT1) | relative activation of SIRT5 versus SIRT1 (in words) (human SIRT5)
Oc1ccc(/C=C/c2ccccc2)cc1O [3,4-Dihydroxy-trans-stilbene] | SIRT5 inhibitors | 0.58 ± 0.25 | 1.64 ± 0.10 | – | – | –
Oc1cccc(/C=C/c2ccccc2)c1 [3-Hydroxy-trans-stilbene] | SIRT5 inhibitors | 0.79 ± 0.06 | 2.36 ± 0.07 | – | – | –
COc1ccc(/C=C/c2ccccc2)cc1 [4-Methoxy-trans-stilbene] | SIRT5 inhibitors | 0.79 ± 0.20 | 0.84 ± 0.09 | – | – | –
CC(=O)Oc1ccc(/C=C/c2cc(O)cc(O)c2)cc1 [BML-221, 3,5-Dihydroxy-4′-acetoxy-trans-stilbene] | – | 2.89 ± 0.15 | 3.05 ± 0.54 | – | – | –
COc1cc(O)cc(/C=C/c2ccc(NC(C)=O)cc2)c1 [BML-223, 3-methoxy-5-hydroxy-4′-acetamido-trans-stilbene] | – | 3.10 ± 0.016 | – | – | – | –
Oc1cc(O)cc(/C=C/C2CCCCC2)c1 [BML-224, (E)-1-(3,5-Dihydroxyphenyl)-2-(cyclohexyl)ethene] | – | 1.40 ± 0.23 | 1.30 ± 0.04 | – | – | –
CC(=O)Oc1cc(O)cc(/C=C/c2ccc(O)cc2)c1 [BML-227, 3,4′-Dihydroxy-5-acetoxy-trans-stilbene] | – | 2.09 ± 0.25 | 2.69 ± 0.08 | – | – | –
O=C(/C=C/c1ccc(O)c(O)c1)c1ccc(O)cc1O [Butein, 3,4,2′,4′-Tetrahydroxychalcone] | – | 2.19 ± 0.10 | 8.53 ± 0.89 | – | – | selective activators of SIRT1 as compared to SIRT5; also recorded: relatively less potent SIRT5 activation
O=c1c(O)c(-c2ccc(O)c(O)c2)oc2cc(O)ccc12 [Fisetin, 3,7,3′,4′-Tetrahydroxyflavone] | – | 2.61 ± 0.19 | 6.58 ± 0.69 | – | – | relatively less potent SIRT5 activation
CC(Cc1ccc(O)c(O)c1)C(C)Cc1ccc(O)c(O)c1 (stereo not drawn) [NDGA, Nordihydroguaiaretic acid] | – | 1.91 ± 0.02 | 1.738 ± 0.088 | – | – | –
O=c1c(O)c(-c2ccc(O)c(O)c2)oc2cc(O)cc(O)c12 [Quercetin, 3,5,7,3′,4′-Pentahydroxyflavone] | – | 2.18 ± 0.10 | 4.59 ± 0.47 | – | – | relatively less potent SIRT5 activation
Cc1ccc(NC(=O)c2cccc(N(C)C)c2)cc1NC(=O)c1ccc(O)cc1 [ZM 336372, N-[5-(3-dimethylaminobenzamido)-2-methylphenyl]-4-hydroxybenzamide] | SIRT5 inhibitors | 0.74 ± 0.05 | 3.5 ± 1.1 | – | – | selective activators of SIRT1 as compared to SIRT5

The next lines start with results.

identified as human SIRT5 inhibitor (human SIRT5) | SIRT5 Ratio of Control Rates Mean ± SE Compounds at 200 μM (human SIRT5; [1]) | SIRT1 Ratio to Control Rates Mean ± SE Compounds at 100 μM (human SIRT1) | maximum stimulation observed for SIRT5, increase in activity (human SIRT5; [1]) | maximum stimulation observed for SIRT1, increase in activity (human SIRT1) | SMILES | relative activation of SIRT5 versus SIRT1 (in words) (human SIRT5)
– | 13.6 ± 0.4 | 10.6 ± 0.4 | 13.6 fold | – | Oc1cc(O)cc(/C=C/c2ccc(Cl)cc2)c1 [BML-217, 3,5-Dihydroxy-4′-chloro-trans-stilbene] | potent activator of SIRT5 and SIRT1
– | 2.47 ± 0.22 | 3.05 ± 0.37 | – | – | Oc1cc(O)cc(/C=C/c2ccc3ccccc3c2)c1 [BML-218, (E)-1-(3,5-Dihydroxyphenyl)-2-(2-napthyl)ethene] | –
– | 2.26 ± 0.17 | 1.88 ± 0.11 | – | – | CC(=O)Nc1ccc(/C=C/c2cc(O)cc(O)c2)cc1 [BML-222, 3,5-Dihydroxy-4′-acetamide-trans-stilbene] | –
– | 8.41 ± 0.36 | 9.373 ± 0.014 | – | – | CCc1ccc(/C=C/c2cc(O)cc(O)c2)cc1 [BML-225, 3,5-Dihydroxy-4′-ethyl-trans-stilbene] | –
– | 8.12 ± 0.31 | 7.72 ± 0.12 | – | – | Cc1ccc(/C=C/c2cc(O)cc(O)c2)cc1 [BML-228, 3,5-Dihydroxy-4′-methyl-trans-stilbene] | –
– | 3.43 ± 0.10 | 6.78 ± 0.22 | – | – | O=[N+]([O-])c1ccc(/C=C/c2cc(O)cc(O)c2)cc1 [BML-229, 3,5-Dihydroxy-4′-nitro-trans-stilbene] | –
– | 4.60 ± 0.17 | 6.84 ± 1.26 | – | – | CSc1ccc(/C=C/c2cc(O)cc(O)c2)cc1 [BML-230, 3,5-Dihydroxy-4′-thiomethyl-trans-stilbene] | –
– | 8.41 ± 0.22 | 6.01 ± 0.15 | – | – | CC(C)c1ccc(/C=C/c2cc(O)cc(O)c2)cc1 [BML-231, 3,5-Dihydroxy-4′-isopropyl-trans-stilbene] | –
– | 2.49 ± 0.29 | 1.26 ± 0.12 | – | – | Oc1cc(O)cc(/C=C/c2ccncc2)c1 [BML-236, (E)-1-(3,5-Dihydroxyphenyl)-2-(4-pyridyl)ethene] | –
– | 4.50 ± 0.28 | 2.74 ± 0.37 | – | – | COC(=O)c1ccc(/C=C/c2cc(O)cc(O)c2)cc1 [BML-237, 3,5-Dihydroxy-4′-carbomethoxy-trans-stilbene] | selective activators of SIRT5 as compared to SIRT1
– | 2.09 ± 0.25 | 1.36 ± 0.10 | – | – | O=C(O)c1ccc(/C=C/c2cc(O)cc(O)c2)cc1 [BML-238, 3,5-Dihydroxy-4′-carboxy-trans-stilbene] | –
– | 2.12 ± 0.34 | 12.6 ± 0.4 | – | 12.6 fold | CCSc1ccc(/C=C/c2cc(O)cc(O)c2)cc1 [BML-243, 3,5-Dihydroxy-4′-thioethyl-trans-stilbene] | selective activators of SIRT1 as compared to SIRT5; also recorded: relatively less potent SIRT5 activators
– | 3.23 ± 0.21 | 7.90 ± 0.50 | – | – | Oc1cc(O)cc(/C=C/c2ccc(O)c(O)c2)c1 [Piceatannol, 3,5,3′,4′-Tetrahydroxy-trans-stilbene] | relatively more potent at activating SIRT1 than SIRT5
– | 2.71 ± 0.092 | 9.95 ± 0.45 | – | – | Oc1cc(O)cc(/C=C/c2ccccc2)c1 [Pinosylvin, 3,5-Dihydroxy-trans-stilbene] | relatively more potent at activating SIRT1 than SIRT5
